Measurements as given in the NIST ThermoML archive (doi:10.1016/j.jct.2019.02.025).
Numbers after ± are expanded uncertainties.

Key:
[1] = for mass density / kinematic viscosity: 101.33 kPa, Liquid; for mass density: Vibrating tube method; for surface tension liquid-gas / kinematic viscosity: Surface laser light scattering (SLLS)
[2] = refractive index (Na D-line) (dimensionless); conditions: 101.33 kPa, Liquid, Standard Abbe refractometry

CCCCCCC(=O)OCC [ethyl heptanoate]
Conditions | kinematic viscosity [m2/s] | mass density [kg/m3] | refractive index | surface tension liquid-gas [mN/m]
[1], 293.15 K | – | 869.42 ± 1.8 | – | –
[1], 298.25 K | 1.33e-06 ± 4.4e-08 | – | – | 24.88 ± 0.34
[1], 303.15 K | – | 860.36 ± 1.8 | – | –
[1], 313.15 K | – | 851.32 ± 1.7 | – | –
[1], 323.03 K | 9.55e-07 ± 3.1e-08 | – | – | 23.07 ± 0.3
[1], 323.15 K | – | 842.26 ± 1.7 | – | –
[1], 333.15 K | – | 833.07 ± 1.7 | – | –
[1], 343.15 K | – | 824.1 ± 1.7 | – | –
[1], 347.8 K | 7.3e-07 ± 2.5e-08 | – | – | 20.71 ± 0.23
[1], 353.15 K | – | 814.99 ± 1.7 | – | –
[1], 363.15 K | – | 805.81 ± 1.6 | – | –
[1], 372.91 K | 5.73e-07 ± 2.2e-08 | – | – | 18.61 ± 0.23
[1], 373.15 K | – | 796.55 ± 1.6 | – | –
[1], 383.15 K | – | 787.24 ± 1.6 | – | –
[1], 393.15 K | – | 777.81 ± 1.6 | – | –
[1], 397.51 K | 4.7e-07 ± 1.9e-08 | – | – | 16.27 ± 0.19
[1], 403.15 K | – | 768.3 ± 1.6 | – | –
[1], 413.15 K | – | 758.65 ± 1.6 | – | –
[1], 421.88 K | 3.95e-07 ± 1.7e-08 | – | – | 14.43 ± 0.14
[1], 423.15 K | – | 748.89 ± 1.5 | – | –
[1], 433.15 K | – | 738.95 ± 1.5 | – | –
[1], 443.15 K | – | 728.84 ± 1.5 | – | –
[1], 448 K | 3.39e-07 ± 1.6e-08 | – | – | 12.31 ± 0.14
[2], 278.15 K | – | – | 1.42006 ± 0.00057 | –
[2], 283.15 K | – | – | 1.41784 ± 0.00057 | –
[2], 288.15 K | – | – | 1.41562 ± 0.00057 | –
[2], 293.15 K | – | – | 1.41341 ± 0.00057 | –
[2], 298.15 K | – | – | 1.41119 ± 0.00057 | –
[2], 303.15 K | – | – | 1.40896 ± 0.00057 | –
[2], 308.15 K | – | – | 1.40673 ± 0.00057 | –
[2], 313.15 K | – | – | 1.40445 ± 0.00057 | –
[2], 318.15 K | – | – | 1.40216 ± 0.00057 | –
[2], 323.15 K | – | – | 1.39988 ± 0.00057 | –
[2], 328.15 K | – | – | 1.39761 ± 0.00057 | –
[2], 333.15 K | – | – | 1.39535 ± 0.00057 | –
[2], 338.15 K | – | – | 1.39311 ± 0.00057 | –
[2], 343.15 K | – | – | 1.39088 ± 0.00057 | –
[2], 348.15 K | – | – | 1.38866 ± 0.00057 | –
[2], 353.15 K | – | – | 1.38645 ± 0.00057 | –
[2], 358.15 K | – | – | 1.38421 ± 0.00057 | –

CCCCCC(=O)OCC [ethyl hexanoate]
Conditions | kinematic viscosity [m2/s] | mass density [kg/m3] | refractive index | surface tension liquid-gas [mN/m]
[1], 293.15 K | – | 871.07 ± 1.8 | – | –
[1], 298.26 K | 1.13e-06 ± 4.5e-08 | – | – | 24.65 ± 0.38
[1], 303.15 K | – | 861.61 ± 1.7 | – | –
[1], 313.15 K | – | 851.2 ± 1.7 | – | –
[1], 323.06 K | 8.14e-07 ± 3.5e-08 | – | – | 22.27 ± 0.4
[1], 323.15 K | – | 842.71 ± 1.7 | – | –
[1], 333.15 K | – | 833.25 ± 1.7 | – | –
[1], 343.15 K | – | 823.72 ± 1.7 | – | –
[1], 348.04 K | 6.25e-07 ± 2.4e-08 | – | – | 20.08 ± 0.34
[1], 353.15 K | – | 814.13 ± 1.6 | – | –
[1], 363.15 K | – | 804.45 ± 1.6 | – | –
[1], 372.96 K | 5e-07 ± 1.9e-08 | – | – | 17.81 ± 0.24
[1], 373.15 K | – | 794.69 ± 1.6 | – | –
[1], 383.15 K | – | 784.83 ± 1.6 | – | –
[1], 393.15 K | – | 774.87 ± 1.6 | – | –
[1], 397.73 K | 4.11e-07 ± 1.7e-08 | – | – | 15.68 ± 0.11
[1], 403.15 K | – | 764.77 ± 1.5 | – | –
[1], 413.15 K | – | 754.53 ± 1.5 | – | –
[1], 422.94 K | 3.46e-07 ± 1.6e-08 | – | – | 13.51 ± 0.15
[1], 423.15 K | – | 744.07 ± 1.5 | – | –
[1], 447.88 K | 3.03e-07 ± 1.5e-08 | – | – | 11.43 ± 0.25
[2], 278.15 K | – | – | 1.41438 ± 0.00053 | –
[2], 283.15 K | – | – | 1.4121 ± 0.00053 | –
[2], 288.15 K | – | – | 1.40982 ± 0.00053 | –
[2], 293.15 K | – | – | 1.40753 ± 0.00053 | –
[2], 298.15 K | – | – | 1.40525 ± 0.00053 | –
[2], 303.15 K | – | – | 1.40295 ± 0.00053 | –
[2], 308.15 K | – | – | 1.40063 ± 0.00053 | –
[2], 313.15 K | – | – | 1.39829 ± 0.00053 | –
[2], 318.15 K | – | – | 1.39594 ± 0.00053 | –
[2], 323.15 K | – | – | 1.3936 ± 0.00053 | –
[2], 328.15 K | – | – | 1.39128 ± 0.00053 | –
[2], 333.15 K | – | – | 1.38897 ± 0.00053 | –
[2], 338.15 K | – | – | 1.38667 ± 0.00053 | –
[2], 343.15 K | – | – | 1.38438 ± 0.00053 | –
[2], 348.15 K | – | – | 1.3821 ± 0.00053 | –
[2], 353.15 K | – | – | 1.37983 ± 0.00053 | –
[2], 358.15 K | – | – | 1.37754 ± 0.00053 | –
